Measurements published in article PMC12249833, “Discovery and Characterization of Novel Non-Hydroxamate HDAC11 Inhibitors” (International Journal of Molecular Sciences, 2025).

molecular target: HDAC4 (Homo sapiens, UniProt P56524); assay: Isoenzyme selectivity, HDAC4 dose-response; type: biochemical; settings: means ± standard deviation (n = 3)
Sequence (P56524 whole entry, species assumed): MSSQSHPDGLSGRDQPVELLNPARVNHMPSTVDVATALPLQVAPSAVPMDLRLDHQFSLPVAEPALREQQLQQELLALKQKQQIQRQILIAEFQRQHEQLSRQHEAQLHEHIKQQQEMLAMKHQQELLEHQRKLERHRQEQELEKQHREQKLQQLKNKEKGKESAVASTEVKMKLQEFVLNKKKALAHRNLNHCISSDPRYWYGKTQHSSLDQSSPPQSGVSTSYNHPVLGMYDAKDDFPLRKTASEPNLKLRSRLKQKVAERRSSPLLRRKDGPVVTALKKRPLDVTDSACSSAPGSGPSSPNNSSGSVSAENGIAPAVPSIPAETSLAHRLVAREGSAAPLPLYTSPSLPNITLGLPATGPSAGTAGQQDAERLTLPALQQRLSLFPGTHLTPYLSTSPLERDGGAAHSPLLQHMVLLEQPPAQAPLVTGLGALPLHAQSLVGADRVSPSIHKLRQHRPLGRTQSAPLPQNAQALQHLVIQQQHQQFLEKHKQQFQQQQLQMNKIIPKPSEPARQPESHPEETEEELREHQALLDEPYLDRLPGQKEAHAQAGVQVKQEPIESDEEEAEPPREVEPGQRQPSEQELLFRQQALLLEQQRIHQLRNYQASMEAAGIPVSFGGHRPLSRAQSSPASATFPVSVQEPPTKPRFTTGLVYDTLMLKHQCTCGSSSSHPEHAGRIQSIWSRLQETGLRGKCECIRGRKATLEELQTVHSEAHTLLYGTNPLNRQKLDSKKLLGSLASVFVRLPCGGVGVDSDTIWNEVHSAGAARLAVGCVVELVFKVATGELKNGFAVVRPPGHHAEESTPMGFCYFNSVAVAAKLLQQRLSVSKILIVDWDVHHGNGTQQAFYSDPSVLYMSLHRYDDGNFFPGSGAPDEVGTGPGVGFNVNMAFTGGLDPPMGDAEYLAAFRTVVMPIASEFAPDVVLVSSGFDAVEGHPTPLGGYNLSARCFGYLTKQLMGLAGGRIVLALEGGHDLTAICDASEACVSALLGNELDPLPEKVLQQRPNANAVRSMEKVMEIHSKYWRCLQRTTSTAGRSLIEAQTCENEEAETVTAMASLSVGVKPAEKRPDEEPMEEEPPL

Compound | IC50
Oc1c(C(Nc2cccc(C(F)(F)F)c2)c2ccncc2)ccc2cccnc12 (centres unmarked) [9SPC045H03] | > 70000 nM
O=C(/C=C/c1ccc(O)c(O)c1)OCCc1ccccc1 [CAPE, caffeic acid phenethyl ester] | 68000 ± 30000 nM
Cc1cccc2nc(SCc3ccc(C(=O)NO)cc3)n(-c3ccc(Cl)cc3)c(=O)c12 [9HDA020C09] | 900 ± 400 nM

molecular target: T1, HDAC11 (Homo sapiens, UniProt Q96DB2); assay: Time-dependent IC50 / pre-incubation one-step enzyme assay; type: biochemical; settings: pre-incubation for different times up to 60 min
T1 construct: His6 (N); SUMO (N); made in house; host or cells: E. coli BL21 (DE3)
T1 sequence (Q96DB2 1-347): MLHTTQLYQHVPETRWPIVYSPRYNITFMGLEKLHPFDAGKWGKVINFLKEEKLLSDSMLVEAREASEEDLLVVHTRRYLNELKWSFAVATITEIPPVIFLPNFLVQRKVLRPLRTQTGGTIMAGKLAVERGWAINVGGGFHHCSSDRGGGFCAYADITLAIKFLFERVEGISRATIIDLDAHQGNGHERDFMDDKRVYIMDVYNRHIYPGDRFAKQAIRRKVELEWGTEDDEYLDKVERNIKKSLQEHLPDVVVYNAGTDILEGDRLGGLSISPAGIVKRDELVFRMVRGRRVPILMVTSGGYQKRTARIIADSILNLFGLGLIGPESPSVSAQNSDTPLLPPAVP

Compound | Time-dependence of HDAC11 inhibition
Oc1c(C(Nc2cccc(C(F)(F)F)c2)c2ccncc2)ccc2cccnc12 (centres unmarked) [9SPC045H03] | no time-dependent inhibition
O=C(/C=C/c1ccc(O)c(O)c1)OCCc1ccccc1 [CAPE, caffeic acid phenethyl ester] | no time-dependent inhibition

molecular target: T2, HDAC8 (Homo sapiens, UniProt Q9BY41); assay: Isoenzyme selectivity, HDAC8 dose-response; type: biochemical; settings: means ± standard deviation (n = 3)
T2 sequence (Q9BY41 1-377): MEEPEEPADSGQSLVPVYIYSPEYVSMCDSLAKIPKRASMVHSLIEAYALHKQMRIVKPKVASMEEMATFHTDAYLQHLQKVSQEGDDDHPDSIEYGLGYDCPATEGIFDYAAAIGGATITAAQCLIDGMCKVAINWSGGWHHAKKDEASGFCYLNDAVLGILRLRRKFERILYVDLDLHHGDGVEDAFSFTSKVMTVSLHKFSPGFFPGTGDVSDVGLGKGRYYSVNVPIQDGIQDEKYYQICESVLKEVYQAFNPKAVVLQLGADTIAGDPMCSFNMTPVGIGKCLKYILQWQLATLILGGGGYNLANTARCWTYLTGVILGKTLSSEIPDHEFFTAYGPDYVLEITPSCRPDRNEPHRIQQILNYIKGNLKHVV

Compound | IC50
Oc1c(C(Nc2cccc(C(F)(F)F)c2)c2ccncc2)ccc2cccnc12 (centres unmarked) [9SPC045H03] | 13000 ± 5000 nM
O=C(/C=C/c1ccc(O)c(O)c1)OCCc1ccccc1 [CAPE, caffeic acid phenethyl ester] | 7000 ± 2000 nM
Cc1cccc2nc(SCc3ccc(C(=O)NO)cc3)n(-c3ccc(Cl)cc3)c(=O)c12 [9HDA020C09] | 6000 ± 1000 nM

molecular target: T1, HDAC11; assay: HDAC11 fluorimetric enzyme activity assay (Boc-Lys(TFA)-AMC), dose-response; type: biochemical; settings: not given

Compound | IC50
N#C/C(=C\c1ccc(O)c(O)c1)C(=O)NCc1ccccc1 [9LOP015E07, Tyrphostin AG 490] | 14000 ± 3000 nM

same assay, conditions: from IC50 values of Table 2

Compound | Selectivity for HDAC11 against HDAC8 | Selectivity for HDAC11 with respect to HDACs 1, 4, and 6
Oc1c(C(Nc2cccc(C(F)(F)F)c2)c2ccncc2)ccc2cccnc12 (centres unmarked) [9SPC045H03] | about 3 fold | more than 30 fold

same assay, conditions: means ± standard deviation (n = 3); read-out: IC50 against HDAC11

Compound | IC50
Cc1cccc(-n2c(SCc3ccc(C(=O)NO)cc3)nc3ccccc3c2=O)c1 [9HDA020B09] | 1600 ± 300 nM
O=C(CCc1ccccc1)c1c(O)cc(O)cc1O [9SPC036F04] | > 50000 nM
O=C(NO)c1ccc(CSc2nc3ccccc3c(=O)n2-c2cccc(Cl)c2)cc1 [9HDA020B10] | 2000 ± 300 nM
Cc1cccc2nc(SCc3ccc(C(=O)NO)cc3)n(-c3ccccc3F)c(=O)c12 [9HDA020C07] | 1500 ± 300 nM
Cc1ccccc1-n1c(SCc2ccc(C(=O)NO)cc2)nc2cccc(C)c2c1=O [9HDA020C08] | 3500 ± 800 nM
Oc1c(C(Nc2cccc(C(F)(F)F)c2)c2ccncc2)ccc2cccnc12 (centres unmarked) [9SPC045H03] | 2300 ± 500 nM
Cc1ccc(-n2c(SCc3ccc(C(=O)NO)cc3)nc3ccccc3c2=O)c(C)c1 [9HDA020B08] | 2000 ± 200 nM
O=C(NO)c1ccc(CSc2nc3cc(Cl)ccc3c(=O)n2-c2ccccc2F)cc1 [9HDA020C04] | 2000 ± 500 nM
O=C(/C=C/c1ccc(O)c(O)c1)OCCc1ccccc1 [CAPE, caffeic acid phenethyl ester] | 1500 nM
O=C(O)/C=C/c1ccc(O)c(O)c1 [9LOP003E09, caffeic acid] | > 100000 nM
Cc1ccc(-n2c(SCc3ccc(C(=O)NO)cc3)nc3ccccc3c2=O)cc1 [9HDA020B05] | 2000 ± 200 nM
O=C(NO)c1ccc(CSc2nc3ccccc3c(=O)n2-c2ccccc2F)cc1 [9HDA020B11] | 4100 ± 500 nM
O=C1NC(=O)/C(=C/c2ccc(O)nc2)S1 [9HDA018E08] | 19000 ± 2000 nM
O=C(NO)c1ccc(CSc2nc3ccccc3c(=O)n2-c2ccc(Br)cc2)cc1 [9HDA020B07] | 2600 ± 400 nM
Cc1cccc2nc(SCc3ccc(C(=O)NO)cc3)n(-c3ccc(Cl)cc3)c(=O)c12 [9HDA020C09] | 1900 ± 400 nM
CCc1ccc(-n2c(SCc3ccc(C(=O)NO)cc3)nc3cccc(C)c3c2=O)cc1 [9HDA020B06] | 1600 ± 200 nM
O=C(NO)c1ccc(CSc2nc3ccccc3c(=O)n2-c2ccccc2)cc1 [9HDA020B04] | 2100 ± 200 nM
N#C/C(=C\c1ccc(O)c(O)c1)C(=O)NCCCc1ccccc1 [9LOP015D09, Tyrphostin AG 555] | 4300 ± 3000 nM
Cc1cccc2nc(SCc3ccc(C(=O)NO)cc3)n(-c3ccccc3)c(=O)c12 [9HDA020C06] | 1100 ± 400 nM

molecular target: T3, HDAC6 (Homo sapiens, UniProt Q9UBN7); assay: Isoenzyme selectivity, HDAC6 dose-response; type: biochemical; settings: means ± standard deviation (n = 3)
T3 sequence (Q9UBN7 1-1215): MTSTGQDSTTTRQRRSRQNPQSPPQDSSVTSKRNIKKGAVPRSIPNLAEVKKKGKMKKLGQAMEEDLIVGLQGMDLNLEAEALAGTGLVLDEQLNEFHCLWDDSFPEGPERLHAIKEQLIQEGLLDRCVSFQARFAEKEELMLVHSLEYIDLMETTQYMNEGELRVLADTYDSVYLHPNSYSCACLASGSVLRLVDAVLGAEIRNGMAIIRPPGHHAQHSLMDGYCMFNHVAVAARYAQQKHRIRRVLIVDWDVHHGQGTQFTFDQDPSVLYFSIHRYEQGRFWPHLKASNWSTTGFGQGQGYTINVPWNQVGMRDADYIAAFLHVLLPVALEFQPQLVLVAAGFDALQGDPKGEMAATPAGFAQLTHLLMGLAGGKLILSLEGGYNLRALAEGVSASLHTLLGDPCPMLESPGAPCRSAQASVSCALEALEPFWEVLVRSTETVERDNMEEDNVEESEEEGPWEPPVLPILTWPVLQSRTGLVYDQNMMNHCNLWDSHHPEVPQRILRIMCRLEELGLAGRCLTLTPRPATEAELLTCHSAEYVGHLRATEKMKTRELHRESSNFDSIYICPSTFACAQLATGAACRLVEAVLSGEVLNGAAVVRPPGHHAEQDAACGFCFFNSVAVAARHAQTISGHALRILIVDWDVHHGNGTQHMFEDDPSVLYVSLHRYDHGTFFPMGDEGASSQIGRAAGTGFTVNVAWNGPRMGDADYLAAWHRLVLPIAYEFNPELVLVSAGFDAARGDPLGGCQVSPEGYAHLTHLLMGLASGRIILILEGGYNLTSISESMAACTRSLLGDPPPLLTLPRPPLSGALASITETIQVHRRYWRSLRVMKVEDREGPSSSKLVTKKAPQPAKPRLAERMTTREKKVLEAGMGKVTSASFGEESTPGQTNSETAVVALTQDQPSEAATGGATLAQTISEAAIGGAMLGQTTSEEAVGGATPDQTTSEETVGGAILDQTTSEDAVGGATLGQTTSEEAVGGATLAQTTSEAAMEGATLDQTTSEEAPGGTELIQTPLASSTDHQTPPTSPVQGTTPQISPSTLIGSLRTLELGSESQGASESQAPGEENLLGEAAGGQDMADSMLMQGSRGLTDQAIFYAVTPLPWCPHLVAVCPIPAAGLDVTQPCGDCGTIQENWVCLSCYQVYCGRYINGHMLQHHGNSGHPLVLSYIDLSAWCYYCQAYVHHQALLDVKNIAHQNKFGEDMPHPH

Compound | IC50
Oc1c(C(Nc2cccc(C(F)(F)F)c2)c2ccncc2)ccc2cccnc12 (centres unmarked) [9SPC045H03] | 67000 nM
O=C(/C=C/c1ccc(O)c(O)c1)OCCc1ccccc1 [CAPE, caffeic acid phenethyl ester] | > 70000 nM
Cc1cccc2nc(SCc3ccc(C(=O)NO)cc3)n(-c3ccc(Cl)cc3)c(=O)c12 [9HDA020C09] | 900 ± 300 nM
Cc1cccc2nc(SCc3ccc(C(=O)NO)cc3)n(-c3ccccc3)c(=O)c12 [9HDA020C06] | 200 ± 100 nM

molecular target: HDAC1 (Homo sapiens, UniProt Q13547); assay: Isoenzyme selectivity, HDAC1 dose-response; type: biochemical; settings: means ± standard deviation (n = 3)
Sequence (Q13547 whole entry, species assumed): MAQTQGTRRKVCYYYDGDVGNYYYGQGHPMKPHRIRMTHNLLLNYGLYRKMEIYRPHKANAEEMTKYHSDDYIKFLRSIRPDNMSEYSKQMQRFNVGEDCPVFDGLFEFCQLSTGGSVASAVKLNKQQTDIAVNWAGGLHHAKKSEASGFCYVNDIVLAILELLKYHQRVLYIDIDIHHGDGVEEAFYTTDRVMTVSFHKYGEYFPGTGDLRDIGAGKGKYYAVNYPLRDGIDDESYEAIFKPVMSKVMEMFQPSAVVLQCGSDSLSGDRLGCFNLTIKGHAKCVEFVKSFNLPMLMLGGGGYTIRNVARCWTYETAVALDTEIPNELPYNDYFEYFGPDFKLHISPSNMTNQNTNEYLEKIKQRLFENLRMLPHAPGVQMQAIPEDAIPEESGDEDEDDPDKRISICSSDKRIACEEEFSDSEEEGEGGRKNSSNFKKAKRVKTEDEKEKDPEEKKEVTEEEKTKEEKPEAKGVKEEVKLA

Compound | IC50
Oc1c(C(Nc2cccc(C(F)(F)F)c2)c2ccncc2)ccc2cccnc12 (centres unmarked) [9SPC045H03] | > 70000 nM
O=C(/C=C/c1ccc(O)c(O)c1)OCCc1ccccc1 [CAPE, caffeic acid phenethyl ester] | 22000 ± 5000 nM
Cc1cccc2nc(SCc3ccc(C(=O)NO)cc3)n(-c3ccc(Cl)cc3)c(=O)c12 [9HDA020C09] | 2300 ± 500 nM
Cc1cccc2nc(SCc3ccc(C(=O)NO)cc3)n(-c3ccccc3)c(=O)c12 [9HDA020C06] | 1400 ± 400 nM

system: not listed separately; assay: Cytotoxicity testing (XTT) against HEK293; type: cell-based; settings: human, HEK293 cells, HEK293, 100 µM compound concentration, read-out: Cell viability
Protocol: (§1) Figure S10: Cytotoxicity testing of indicated compound against HEK293 cell. 5000 HEK293 cells were seeded in 96-Well plates. After 48h Inkubationszeit at 37°C and 5% CO2 in DMEM supplemented with 10% FBS and 1% Pen/Strep. A serial 1:2 dilution starting with 100 uM of compounds was added and incubated for a further 24h. XTT reagent was added and incubated for 4h. Afterwards the absorbance was measure at 450 nm and 600 nm. Data points are mean values ± standard error, n ≥ 6.
(§2) 9SPC045H03 in the enzyme activity assay is not due to compound-substrate interference. […]

Compound | viability at 24 h, 100 µM
Oc1c(C(Nc2cccc(C(F)(F)F)c2)c2ccncc2)ccc2cccnc12 (centres unmarked) [9SPC045H03] | 50%

system: HEK293 normal cells; assay: Cytotoxicity testing (XTT) against HEK293; type: cell-based; settings: HEK293, up to 100 uM, 24h
Protocol: as §1, §2

Compound | Cytotoxic effect (in words)
Oc1c(C(Nc2cccc(C(F)(F)F)c2)c2ccncc2)ccc2cccnc12 (centres unmarked) [9SPC045H03] | moderately toxic effect
O=C(/C=C/c1ccc(O)c(O)c1)OCCc1ccccc1 [CAPE, caffeic acid phenethyl ester] | did not show cytotoxic effects

molecular target: T1, HDAC11; assay: not given; settings: Figure 1 / text; read-out: HDAC11 IC50 of known inhibitors; cited from earlier work

Compound | IC50
CCCCCCCCCCCCCCCCNNC(=O)c1cccs1 [SIS17] | 850 nM

molecular target: T1, HDAC11; assay: High-throughput screening, residual HDAC11 enzyme activity; type: biochemical; settings: final compound concentration 10 µM

Compound | Res. HDAC activity (residual HDAC11 activity)
O=C(C=Cc1ccc(N=Cc2ccc([N+](=O)[O-])cc2)cc1)OCCc1ccccc1 [9SPC056H05] | 97%
N#C/C(=C\c1ccc(O)c(O)c1)C(=O)NCc1ccccc1 [9LOP015E07, Tyrphostin AG 490] | 65%
O=C(/C=C/c1ccc(O)c(O)c1)OCCc1ccccc1 [CAPE, caffeic acid phenethyl ester] | 46%
N#C/C(=C\c1ccc(O)c(O)c1)C(=O)NCCCc1ccccc1 [9LOP015D09, Tyrphostin AG 555] | 49%
Cc1cccc2nc(SCc3ccc(C(=O)NO)cc3)n(-c3ccccc3)c(=O)c12 [9HDA020C06] | 58%

molecular target: T1, HDAC11; assay: Rapid dilution experiment (reversibility of binding); type: biochemical; settings: 10× IC50, 100-fold rapid dilution, recovery of enzyme activity
Protocol: The inhibitors were evaluated for reversible inhibition in an enzyme activity assay. […] After equilibration for 1 h at 30 °C, this solution is diluted 100-fold directly into 80 μM of the substrate Boc-Lys(TFA)-AMC. After a further hour of incubation, the reaction was stopped as indicated in the enzyme activity assay section.

Compound | Reversibility of binding to HDAC11
Oc1c(C(Nc2cccc(C(F)(F)F)c2)c2ccncc2)ccc2cccnc12 (centres unmarked) [9SPC045H03] | reversible binding
O=C(/C=C/c1ccc(O)c(O)c1)OCCc1ccccc1 [CAPE, caffeic acid phenethyl ester] | reversible binding

molecular target: T1, HDAC11; assay: not given; design: method as in PMID 31264832; settings: 50 µM; cited from earlier work

Compound | Degree of myristoylation of the HDAC11 substrate SHMT2 in cells
CCCCCCCCCCCCCCCCNNC(=O)c1cccs1 [SIS17] | significantly increased
